Where a chain is given by its changes, count along the chain named.
What was measured:
Type in all cases: binding
DC-SIGN CRD wildtype = target: T1, DC-SIGN CRD wildtype (Homo sapiens, UniProt Q9NNX6); assay: 1H-15N HSQC NMR titration (CSP fitting)
T1 construct: acids 253-404 of DC-SIGN; His-tag (N); made in house
T1 sequence (Q9NNX6 253-404): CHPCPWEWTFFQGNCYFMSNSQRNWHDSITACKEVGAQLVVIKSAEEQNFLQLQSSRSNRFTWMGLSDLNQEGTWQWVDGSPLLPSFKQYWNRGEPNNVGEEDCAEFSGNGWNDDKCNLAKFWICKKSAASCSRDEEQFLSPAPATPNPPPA
Experimental: (§1) 1H-15N HSQC NMR. 1H-15N HSQC NMR spectra were collected with 256 increments in the nitrogen and 24 scans per increment and 2048 points in the direct dimension. The relaxation delay d1 was set to 1.0 s. The W5 WATERGATE pulse sequence was used for solvent suppression.3, 4 Experiments were performed at a CRD concentration of 200 μM in 20 mM MES, 40 mM NaCl, 10 mM CaCl2 (pH 6.0) supplemented with 10% D 2O and, if applicable, varying concentrations of ligands. Samples of apo DC -SIGN CRD were prepared as described for 1H-13C HSQC NMR experiments. A previously published resonance assignment of DC-SIGN CRD was transferred to the nearest neighbor in a reference spectrum recorded without ligand.5 Unassigned, overlapping or disappearing peaks were not assigned.
(§2) CSPs induced by mutations or ligands were calculated as previously described according to […]
(§3) The empirical weighing factor a was set to 0.15 for all calculations.
(§4) Dissociation constants (K Ds) were determined in titration experiments at five ligand concentratio ns […]
(§5) in the fast exchange regime were used for the fitting procedure via equation 4 in a global two - […]
(§6) with CSP max corresponding to the CSP values upon saturation and the bound protein fraction p b […]
(§7) CHESPA was performed as previously described .7 The chemical shift vector between apo and holo wildtype DC -SIGN CRD was used as reference perturbation to calculate the vector product to […]

DC-SIGN CRD F359L = target: T2, DC-SIGN CRD F359L (Homo sapiens, UniProt Q9NNX6, F359L); assay: 1H-15N HSQC NMR titration (CSP fitting)
T2 construct: acids 253-404 of DC-SIGN; His-tag (N); made in house
T2 sequence (Q9NNX6 253-404 F359L): T1 sequence (Q9NNX6 253-404) with F107L
Experimental: as §1, §2, §3, §4, §5, §6, §7

DC-SIGN CRD M270F = target: T3, DC-SIGN CRD M270F (Homo sapiens, UniProt Q9NNX6, M270F); assay: 1H-15N HSQC NMR titration (CSP fitting)
T3 construct: acids 253-404 of DC-SIGN; His-tag (N); made in house
T3 sequence (Q9NNX6 253-404 M270F): T1 sequence (Q9NNX6 253-404) with M18F
Experimental: as §1, §2, §3, §4, §5, §6, §7

DC-SIGN CRD Q323A = target: T4, DC-SIGN CRD Q323A (Homo sapiens, UniProt Q9NNX6, Q323A); assay: 1H-15N HSQC NMR titration (CSP fitting)
T4 construct: acids 253-404 of DC-SIGN; His-tag (N); made in house
T4 sequence (Q9NNX6 253-404 Q323A limits assumed): T1 sequence (Q9NNX6 253-404) with Q71A
Experimental: as §1, §2, §3, §4, §5, §6, §7

DC-SIGN CRD I376V = target: T5, DC-SIGN CRD I376V (Homo sapiens, UniProt Q9NNX6, I376V); assay: 1H-15N HSQC NMR titration (CSP fitting)
T5 construct: acids 253-404 of DC-SIGN; His-tag (N); made in house
T5 sequence (Q9NNX6 253-404 I376V limits assumed): T1 sequence (Q9NNX6 253-404) with I124V
Experimental: as §1, §2, §3, §4, §5, §6, §7

DC-SIGN CRD T314A = target: T6, DC-SIGN CRD T314A (Homo sapiens, UniProt Q9NNX6, T314A); assay: 1H-15N HSQC NMR titration (CSP fitting)
T6 construct: acids 253-404 of DC-SIGN; His-tag (N); made in house
T6 sequence (Q9NNX6 253-404 T314A): T1 sequence (Q9NNX6 253-404) with T62A
Experimental: as §1, §2, §3, §4, §5, §6, §7

DC-SIGN CRD F313A = target: T7, DC-SIGN CRD F313A (Homo sapiens, UniProt Q9NNX6, F313A); assay: 1H-15N HSQC NMR titration (CSP fitting)
T7 construct: acids 253-404 of DC-SIGN; His-tag (N); made in house
T7 sequence (Q9NNX6 253-404 F313A): T1 sequence (Q9NNX6 253-404) with F61A
Experimental: as §1, §2, §3, §4, §5, §6, §7

DC-SIGN CRD W364F = target: T8, DC-SIGN CRD W364F (Homo sapiens, UniProt Q9NNX6, W364F); assay: 1H-15N HSQC NMR titration (CSP fitting)
T8 construct: acids 253-404 of DC-SIGN; His-tag (N); made in house
T8 sequence (Q9NNX6 253-404 W364F): T1 sequence (Q9NNX6 253-404) with W112F
Experimental: as §1, §2, §3, §4, §5, §6, §7

DC-SIGN ECD T314A = target: T9, DC-SIGN ECD T314A (Homo sapiens, UniProt Q9NNX6, T314A); assay: Plate-based horseradish peroxidase assay; details: 1 µg mL-1 HRP, 25 mM CaCl2
T9 construct: acids 64 -404 of DC -SIGN; made in house
T9 sequence (Q9NNX6 64-404 T314A): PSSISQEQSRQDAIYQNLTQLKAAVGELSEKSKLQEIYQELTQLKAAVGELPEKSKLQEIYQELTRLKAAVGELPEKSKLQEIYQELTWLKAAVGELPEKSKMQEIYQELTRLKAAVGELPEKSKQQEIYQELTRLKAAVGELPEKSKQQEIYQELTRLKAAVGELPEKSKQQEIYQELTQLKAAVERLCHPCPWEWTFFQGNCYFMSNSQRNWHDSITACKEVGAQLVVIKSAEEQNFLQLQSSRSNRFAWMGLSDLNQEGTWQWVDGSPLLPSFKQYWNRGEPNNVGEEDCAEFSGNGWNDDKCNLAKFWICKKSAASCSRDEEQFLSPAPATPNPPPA
Experimental: Measurements were done on a Enspire Multimode Plate Reader (PerkinElmer). GraphPad Prism was used for all data processing and analysis.
CaCl2 titration. 100 µg mL-1 DC-SIGN ECD were immobilized in immobilization buffer (25 mM HEPES, 150 mM NaCl, 25 mM CaCl 2, pH 7.4) overnight at 4°C on transparent Nunc Maxisorp 96-well plates (Thermo Fisher). Protein solution was removed, and plates were washed three times with immobilization buffer and then blocked for 2 hours at 4°C with blocking buffer (25 mM HEPES, 150 mM NaCl, 25 mM CaCl 2, 2% BSA, 0.01% Tween -20). Plates were washed twice with 25 mM HEPES, 150 mM NaCl, 5 mM EDTA, pH 7.4 and twice with 25 mM HEPES, 150 mM NaCl, pH 7.4 to remove residual Ca 2+. To titrate Ca2+, CaCl2 in 25 mM HEPES, 150 mM NaCl, pH 7.4 was serially diluted on the plate at a constant HRP concentration of 1 µg mL-1 and then incubated at RT for 2 hours. Following incubation, plates were washed three times with 25 mM HEPES, 150 mM NaCl, pH 7.4 and bound HRP was detected using a TMB substrate kit (Thermo Fisher) and 0.18 M H2SO4 according to manufacturer’s instructions.
HRP titration. Immobilization and blocking were done as described above. After blocking, plates were washed three times with immobilization buffer. HRP in immobilization buffer was serially diluted on the plate at a constant concentration CaCl2 concentration of 25 mM and then incubated
at RT for 2 hours. Following incubation, plates were washed three times with immobilization buffer and HRP was detected as described above.
Immobilization and blocking were done as described above. After blocking, plates were washed three times with immobilization buffer. containing 1 µg mL-1 HRP was serially diluted on the plate and then incubated at RT for 2 hours.
Following incubation, plates were washed three times with immobilization buffer and HRP was detected as described above.
All conditions were measured in technical triplicates, averaged and normalized to the control well
IC50 and EC50 values and hill
slopes (nH) were obtained in a four-parameter fit according to equation (1).
Y = bottom + top − bottom (1)
With bottom and top representing the minimal and maximal response plateaus, respectively, Y as the observed response and X the logarithmic concentration of the ligand .

OC[C@H]1OC(O)[C@@H](O)[C@@H](O)[C@@H]1O (stereo partly drawn) [mannose] was tested. Which Kd (DC-SIGN CRD wildtype) did it give?
Its Kd is 3.3 ± 0.3 mM.

What about the Kd (DC-SIGN CRD F359L) of the same molecule?
The Kd was 8.2 ± 0.8 mM.

What about the Kd (DC-SIGN CRD M270F) of the same molecule?
The Kd was 2.9 ± 0.4 mM.

What about the Kd (DC-SIGN CRD Q323A) of the same molecule?
Its Kd is 3.5 ± 0.2 mM.

What about the Kd (DC-SIGN CRD I376V) of the same molecule?
Its Kd is 3.4 ± 0.2 mM.

What about the Kd (DC-SIGN CRD T314A) of the same molecule?
Its Kd is 3.9 ± 0.1 mM.

What about the Kd (DC-SIGN CRD F313A) of the same molecule?
The Kd was 6 ± 0.5 mM.

What about the Kd (DC-SIGN CRD W364F) of the same molecule?
Its Kd is 5 ± 0.9 mM.

And the “hill slope, inhibition of HRP binding” value (DC-SIGN ECD T314A)?
The value was -2.1.
